Values of other authors in article PMC10055906 (Chemical Science, 2023).
pKd: −log10 of the molar value.

Target: FGF2 (Homo sapiens, UniProt P09038)
Conditions: read-out: KD (FGF2 affinity)

Sequence of FGF2 (P09038 134-288): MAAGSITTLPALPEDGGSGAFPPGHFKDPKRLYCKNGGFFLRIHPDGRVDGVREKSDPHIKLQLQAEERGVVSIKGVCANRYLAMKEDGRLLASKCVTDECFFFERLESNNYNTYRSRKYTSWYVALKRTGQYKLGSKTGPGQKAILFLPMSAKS

pKd: 5.92
Substance: IdoA-GlcNS(6S)-IdoA(2S)-GlcNS(6S)
